Test results from patent US5470866A, “Method for the conversion of cephalomannine to taxol and for the preparation of n-acyl analogs of taxol” (Virginia Polytechnic Institute and State University, priority 1994, dated 1995).
Values after ≈ are worked out from the molar mass of the structure shown.

Legend:
[1] = test system: P-388 lymphocytic leukemia cells; experiment: cell culture assay using P-388 lymphocytic leukemia cells (cytotoxicity of N-debenzoyl-N-acyltaxols); type: cell-based; details: Mus musculus, P388; P-388 cell culture; taxol reference; read-out: Absolute ED50
Protocol: For details of the cell culture assay, see Abbott, B. J., "Protocol 14 of Instruction 275," National Cancer Institute, National Institutes Of Health, Jan. 24, 1978. N-acyltaxol analogs are important analogs of taxol for anticancer treatment. The present invention provides a simple way of preparing such analogs from taxol or cephalomannine without removing the C-13 side-chain.
*Cytotoxicity is recorded as ED50 value relative to taxol determined
in the same assay. Absolute ED50 of taxol is approximately 0.03

[2] = in some assays; reported in literature; cited from earlier work

Row | Structure (SMILES) | IC50 [1] [µg/mL] | activity relative to taxol [2]
1 | CC(=O)O[C@H]1C(=O)[C@@]2(C)[C@H]([C@H](OC(=O)c3ccccc3)[C@]3(O)C[C@H](OC(=O)[C@H](O)[C@@H](NC(=O)c4ccccc4)c4ccccc4)C(C)=C1C3(C)C)[C@]1(OC(C)=O)CO[C@@H]1C[C@@H]2O [taxol] | ~0.03 (≈ 0.0351 µM) | 
2 | CC(=O)O[C@@]12CO[C@@H]1C[C@H](O)[C@@]1(C)C(=O)[C@H](O)C3=C(C)[C@@H](OC(=O)[C@H](O)[C@@H](NC(=O)OC(C)(C)C)c4ccccc4)C[C@@](O)([C@@H](OC(=O)c4ccccc4)[C@H]21)C3(C)C [taxotere] |  | approximately twice as active as taxol
